From patent US12478624B2, “Heterocyclic derivatives, pharmaceutical compositions and their use in the treatment or amelioration of cancer” (Tolremo Therapeutics AG, priority 2019, dated 2025) come the findings set out here.

Usually EC50 stands for the concentration that produces a half-maximal response.

The test system of this assay is A375 cells. Nature of the assay: Assay 1: A375 cells treated with S1152, S1008 and compound, immunofluorescence (sc-365823) signal. The class given is cell-based. To be noted: 1 μM S1152 + 0.5 μM S1008, one day. The procedure: One thousand four hundred A375 cells were seeded in each well of a 384 well microplate. One day later they were treated with 1 μM S1152 (Selleckchem) in dimethyl sulfoxide, 0.5 μM S1008 (Selleckchem) and dose ranges of invention compounds for one day in Dulbecco's Modified Eagle's Medium supplemented with 10% fetal calf serum and 2 mM (2S)-2-amino-4-carbamoylbutanoic acid. Wells were incubated with 4% polyoxymethylene (Sigma Aldrich 158127) at ambient temperature. […] After one minute phosphate-buffered saline was replaced with 0.2% polyethylene glycol octylphenyl ether in phosphate-buffered saline. […] 1% aminoethanoic acid in phosphate-buffered saline was added for ten minutes at ambient temperature. […] After one hour at ambient temperature in the dark, signal in wells was measured with a Acumen Cellista. 3,8-Diamino-5-[3-(diethylmethylammonio)propyl]-6-phenylphenanthridinium diiodide-positive objects were defined in FL3 (565-600 nm) with a perimeter between 50-800 μm and a total intensity of 10000-1000000 FLU. Signal in FL2 (500-530 nm) was measured in defined objects. A normalized ratio of total In FL2 over total In FL3 staining was log transformed. A non-linear regression (variable slope, 4 parameters) was used to calculate EC50 values using GraphPad Prism (Version 7.0d).
In an alternative procedure, assay 1 has been affected by changing the counteratain. […] Cells were incubated with 0.5 μg/ml 2-(4-Amidinophenyl)-6-indolecarbamidine dihydrochloride, 4′,6-Diamidino-2-phenylindole dihydrochloride (Sigma D9542) in phosphate-buffered saline for at least 30 minutes at ambient temperature in the dark. A Celigo Imager (Nexcelom) was used to acquire images in the blue and green channel. The blue channel was used as a mask to define the area for the green signal. The average integrated intensity of the green signal was normalized and a non-linear regression (variable slope, 4 parameter) was used to calculate the EC50 values using GraphPad Prism (Version 8.4)

Consider `COc1cncc(-c2cc(Nc3cccc(Cl)c3)nc([C@@H]3CC[C@H](C)N(C(C)=O)C3)n2)c1` (racemic) [Compound 00016, (+/−)-cis-1-(5-(4-((3-chlorophenyl)amino)-6-(5-methoxypyridin-3-yl)pyrimidin-2-yl)-2-methylpiperidin-1-yl)ethan-1-one], for which the EC50 was below 200 nM.

As to `COc1cncc(-c2cc(Nc3cccc(Cl)c3)nc([C@@H]3CC[C@@H](C)N(C(C)=O)C3)n2)c1` (racemic) [Compound 00017, (+/−)-trans-1-(5-(4-((3-chlorophenyl)amino)-6-(5-methoxypyridin-3-yl)pyrimidin-2-yl)-2-methylpiperidin-1-yl)ethan-1-one], the EC50 (Homo sapiens, A-375, 24 h) lay in the range of 1000 to 10000 nM.

Turning to `CC[C@H]1CC[C@@H](c2nc(Nc3cccc(C)c3)cc(-c3cccnc3)n2)CN1C(C)=O` (racemic) [Compound 00018, (+/−)-cis-1-(2-ethyl-5-(4-(pyridin-3-yl)-6-(m-tolylamino)pyrimidin-2-yl)piperidin-1-yl)ethan-1-one], for the setting “Homo sapiens, A-375, 24 h”, the EC50 was 1000 to 10000 nM.

As for `CC[C@@H]1CC[C@@H](c2nc(Nc3cccc(C)c3)cc(-c3cccnc3)n2)CN1C(C)=O` (racemic) [Compound 00019, (+/−)-frans-1-(2-ethyl-5-(4-(pyridin-3-yl)-6-(m-tolylamino)pyrimidin-2-yl)piperidin-1-yl)ethan-1-one], where the note is “Homo sapiens, A-375, 24 h”, the EC50 was above 10000 nM.

As to `CC[C@H]1CC[C@@H](c2nc(Nc3cccc(F)c3)cc(-c3cccnc3)n2)CN1C(C)=O` (racemic) [Compound 00020, (+/−)-c/s-1-(2-ethyl-5-(4-((3-fluorophenyl)amino)-6-(pyridin-3-yl)pyrimidin-2-yl)piperidin-1-yl)ethan-1-one], the EC50 (Homo sapiens, A-375, 24 h) lay within 1000 to 10000 nM.

As to `CC[C@@H]1CC[C@@H](c2nc(Nc3cccc(F)c3)cc(-c3cccnc3)n2)CN1C(C)=O` (racemic) [Compound 00021, (+/−)-trans-1-(2-ethyl-5-(4-((3-fluorophenyl)amino)-6-(pyridin-3-yl)pyrimidin-2-yl)piperidin-1-yl)ethan-1-one], where the note is “Homo sapiens, A-375, 24 h”, the 50% effective concentration (EC50) was above 10000 nM.

Consider `CC(=O)N1C[C@H](c2nc(Nc3cccc(C)c3)cc(-c3cccnc3)n2)CC[C@@H]1C(F)(F)F` (racemic) [Compound 00022, (+/−)-c/s-1-(5-(4-(pyridin-3-yl)-6-(m-tolylamino)pyrimidin-2-yl)-2-(trifluoromethyl)piperidin-1-yl)ethan-1-one], for which the EC50 lay within 200 to 1000 nM.

Consider `CC(=O)N1C[C@H](c2nc(Nc3cccc(F)c3)cc(-c3cccnc3)n2)CC[C@@H]1C(F)(F)F` (racemic) [Compound 00023, (+/−)-c/s-1-(5-(4-((3-fluorophenyl)amino)-6-(pyridin-3-yl)pyrimidin-2-yl)-2-(trifluoromethyl)piperidin-1-yl)ethan-1-one], for which the EC50 lay in the range of 200 to 1000 nM.

Turning to `CC(=O)N1C[C@H](c2nc(Nc3cccc(F)c3)cc(-c3cccnc3)n2)CC[C@H]1C(F)(F)F` (racemic) [Compound 00024, (+/−)-trans-1-(5-(4-((3-fluorophenyl)amino)-6-(pyridin-3-yl)pyrimidin-2-yl)-2-(trifluoromethyl)piperidin-1-yl)ethan-1-one], the concentration giving a half-maximal response (EC50) (Homo sapiens, A-375, 24 h) was above 10000 nM.

Turning to `CC(=O)N1C[C@H](c2nc(Nc3cccc(F)c3)cc(-c3cccnc3)n2)CC[C@@H]1C(F)F` (racemic) [Compound 00025, (+/−)-c/s-1-(2-(difluoromethyl)-5-(4-((3-fluorophenyl)amino)-6-(pyridin-3-yl)pyrimidin-2-yl)piperidin-1-yl)ethan-1-one], for the setting “Homo sapiens, A-375, 24 h”, the EC50 lay within 1000 to 10000 nM.

Regarding `CC(=O)N1C[C@H](c2nc(Nc3cccc(F)c3)cc(-c3cccnc3)n2)CC[C@H]1C(F)F` (racemic) [Compound 00026, (+/−)-frans-1-(2-(difluoromethyl)-5-(4-((3-fluorophenyl)amino)-6-(pyridin-3-yl)pyrimidin-2-yl)piperidin-1-yl)ethan-1-one], the EC50 (Homo sapiens, A-375, 24 h) is above 10000 nM.

As to `CC(=O)N1C[C@H](c2nc(Nc3cccc(C)c3)cc(-c3cccnc3)n2)CC[C@@H]1C(F)F` (racemic) [Compound 00027, (+/−)-cis-1-(2-(difluoromethyl)-5-(4-(pyridin-3-yl)-6-(m-tolylamino)pyrimidin-2-yl)piperidin-1-yl)ethan-1-one], the EC50 (Homo sapiens, A-375, 24 h) fell in the range of 1000 to 10000 nM.

For `CC(=O)N1C[C@H](c2nc(Nc3cncc(C)c3)cc(-c3cncnc3)n2)CC[C@@H]1C` (racemic) [Compound 00097, (+/−)-c/s-1-(2-methyl-5-(6-((5-methylpyridin-3-yl)amino)-[4,5′-bipyrimidin]-2-yl)piperidin-1-yl)ethan-1-one], the EC50 (Homo sapiens, A-375, 24 h) is 1000 to 10000 nM.

Consider `CC(=O)N1C[C@H](c2nc(Nc3cncc(C)c3)cc(-c3cncc(C)c3)n2)CC[C@@H]1C` (racemic) [Compound 00098, (+/−)-c/s-1-(2-methyl-5-(4-(5-methylpyridin-3-yl)-6-((5-methylpyridin-3-yl)amino)pyrimidin-2-yl)piperidin-1-yl)ethan-1-one], for which the EC50 is below 200 nM.

Take `CC(=O)N1C[C@H](c2nc(Nc3cncc(C)c3)cc(-c3cncc4[nH]ccc34)n2)CC[C@@H]1C` (racemic) [Compound 00099, (+/−)-cis-1-(2-methyl-5-(4-((5-methylpyridin-3-yl)amino)-6-(1H-pyrrolo[2,3-c]pyridin-4-yl)pyrimidin-2-yl)piperidin-1-yl)ethan-1-one]: the EC50 is 200 to 1000 nM.

Take `CC(=O)N1C[C@H](c2nc(Nc3cncc(C)c3)cc(-c3cncc(C4COC4)c3)n2)CC[C@@H]1C` (racemic) [Compound 00100, (+/−)-c/s-1-(2-methyl-5-(4-((5-methylpyridin-3-yl)amino)-6-(5-(oxetan-3-yl)pyridin-3-yl)pyrimidin-2-yl)piperidin-1-yl)ethan-1-one]: the EC50 lay within 200 to 1000 nM.

For the molecule `CC(=O)N1C[C@H](c2nc(Nc3cccnc3)cc(-c3cccnc3)n2)CC[C@@H]1C` (racemic) [Compound 00102, (+/−)-cis-1-(2-methyl-5-(4-(pyridin-3-yl)-6-(pyridin-3-ylamino)pyrimidin-2-yl)piperidin-1-yl)ethan-1-one], the EC50 lay within 200 to 1000 nM.

`CC(=O)N1C[C@H](c2nc(Nc3cccc(F)c3)cc(-c3cncc(O)c3)n2)CC[C@@H]1C` (stereo in doubt) [Compound 00005]: the EC50 is below 200 nM.

With `CC(=O)N1C[C@@H](c2nc(Nc3cncc(C)c3)cc(-c3cnccn3)n2)CC[C@H]1C` [Compound 00002, 1-((2R,5S)-2-methyl-5-(4-((5-methylpyridin-3-yl)amino)-6-(pyrazin-2-yl)pyrimidin-2-yl)piperidin-1-yl)ethan-1-one], the EC50 was above 10000 nM.

As to `CC(=O)N1C[C@H](c2nc(Nc3ccncc3)cc(-c3cccnc3)n2)CC[C@@H]1C` [Compound 00006], the EC50 lay within 200 to 1000 nM.

`CC(=O)N1C[C@@H](c2nc(Nc3ccncc3)cc(-c3cccnc3)n2)CC[C@H]1C` [Compound 00007]: the EC50 is above 10000 nM.

Regarding `[2H]C([2H])([2H])[C@H]1CC[C@@H](c2nc(Nc3cccc(F)c3)cc(-c3cccnc3)n2)CN1C(C)=O` [Compound 00010], the EC50 was below 200 nM.

Regarding `[2H]C([2H])([2H])[C@@H]1CC[C@H](c2nc(Nc3cncc(C)c3)cc(-c3cnccn3)n2)CN1C(C)=O` [Compound 00011], the EC50 was above 10000 nM.

Turning to `[2H]C([2H])([2H])[C@H]1CC[C@@H](c2nc(Nc3cncc(C)c3)cc(-c3cnccn3)n2)CN1C(C)=O` [Compound 000012], the EC50 was below 200 nM.
